US20260174790A1, “HUMAN AND MURINE OPRM1 PROMOTERS AND USES THEREOF” (The Trustees of the University of Pennsylvania, priority 2022, published 2026)

How the values were obtained:
[1] = tested on: spinal MOR+ neurons; experiment: Von Frey filament Up-Down test with chemogenetic inhibition; type: in vivo, mouse; conditions: intrathecal DCZ 10 pg, mMORp-hM4Di-mCherry injected mice; von Frey and hot plate
Method: For spinal cord chemogenetic studies, mice were injected intraparenchymally at four sites (bilaterally at L4 and L5) with 400 nL of AAV1-mMORp-hM4Di-mCherry (titer: 3.1×10^12 gc/mL) to drive transduction of inhibitory DREADD receptor in spinal cord neurons. Using a modified, minimally invasive method for microinjection in the mouse spinal dorsal horn without laminectomy^91, mice were first anesthetized with isoflurane gas in oxygen (initial dose=4%, maintenance dose=2%), the back shaved and wiped with alcohol and povidone-iodine followed by a 2 cm incision made through the skin, and then placed within a modified Kopf stereotaxic frame to stabilize the T13 and L3 spinal column vertebrae. Next, the spinal column was slightly arched upwards by ˜30°, 0.2 mg/kg lidocaine was administered to the overlying muscle, which was then was gently dissected to expose the interspace above and below the T13 vertebrae, allowing direct access to the L3-5 spinal cord dorsal surface. […]
Von Frey filament touch test: To evaluate mechanical reflexive sensitivity, we used a logarithmically increasing set of 8 von Frey filaments (Stoelting), ranging in gram force from 0.07 to 6.0 grams. […] Using the Up-Down statistical method^100, the 50% withdrawal mechanical threshold scores were calculated for each mouse and then averaged across the experimental groups. […]

[2] = tested on: MOR+ CeA neurons; experiment: In vivo fiber photometry, chronic morphine drinking and naloxone precipitated withdrawal; set-up: species or system mouse; conditions: mMORp-GCaMP6f mice, forced morphine drinking (0.3 mg/ml 3 days, 0.5 mg/ml 4 days), naloxone i.p. 3 mg/kg, 20-minute window
Method: For fiber photometry studies, mice were injected with ˜300 nL of recombinant AAV1-mMORp-GCaMP6f (titer: 3.69×10^12 gc/mL) in the right CeA, followed immediately by the placement of a fiberoptic implant (˜4.7 mm fiber, Doric Lenses) approximately 0.1-0.2 mm above the DV coordinate of the injection site (same as listed above). After setting the fiberoptic in position, MetaBond (Parkel1) and Jet Set dental acrylic (Lang Dental) were applied to the skull of a mouse to rapidly and firmly fix the fiberoptic in place. In brief, after exposure of the skull, the bone was scored with a scalpel blade to provide grooves for the MetaBond to settle into and provide better adhesion. […] All mice were monitored for up to two days following surgical procedures to ensure the animals' proper recovery.
In Vivo Fiber Photometry Recordings and Analysis: Optical recordings of GCaMP6f fluorescence were acquired using an RZ10× fiber photometry detection system (Tucker-Davis Technologies), consisting of a processor with Synapse software (Tucker-Davis Technologies), and optical components (Doric Lenses and ThorLabs). Excitation wavelengths generated by LEDs (460 nm blue light and 405 nm violet light) were relayed through a filtered fluorescence minicube at spectral bandwidths of 460-495 and 405 nm to a pre-bleached mono fiberoptic patch cord connected to the implant on top of each animal's head. […]

[3] = tested on: MOR+ CeA neurons; experiment: In vivo fiber photometry, hot water hind paw stimulation; set-up: species or system mouse; conditions: mMORp-GCaMP6f mice, morphine i.p. 10 mg/kg 30 minutes prior to hot water hind paw stimulations
Method: For fiber photometry studies, mice were injected with ˜300 nL of recombinant AAV1-mMORp-GCaMP6f (titer: 3.69×10^12 gc/mL) in the right CeA, followed immediately by the placement of a fiberoptic implant (˜4.7 mm fiber, Doric Lenses) approximately 0.1-0.2 mm above the DV coordinate of the injection site (same as listed above). After setting the fiberoptic in position, MetaBond (Parkel1) and Jet Set dental acrylic (Lang Dental) were applied to the skull of a mouse to rapidly and firmly fix the fiberoptic in place. In brief, after exposure of the skull, the bone was scored with a scalpel blade to provide grooves for the MetaBond to settle into and provide better adhesion. After lowering the fiberoptic into the craniotomy hole, the skull was cleaned with saline and then fully air dried. […] All mice were monitored for up to two days following surgical procedures to ensure the animals' proper recovery.
Hot water hindpaw stimulation test: To evaluate responses to acute, noxious thermal stimulations during fiber photometry testing, we used a hot water hind paw application protocol described previously^102. […] Animals were continuously recorded by a web camera positioned to face the front of the cylinder in which the animal was housed, and all relevant behaviors time-locked to calcium mediated events were scored post-hoc using the video footage. […]

SMILES: CN1CCN(C2=Nc3ccccc3Nc3ccccc32)CC1 [DCZ, deschloroclozapine]
- analgesic effects on activation of mMORp-hM4Di in spinal cord neurons [1]: analgesic effects similar to CNO treatment

SMILES: CN1CC[C@]23c4c5ccc(O)c4O[C@H]2[C@@H](O)C=C[C@H]3[C@H]1C5.O=S(=O)(O)O [morphine, morphine sulfate]
- average post naloxone calcium events [2]: 91
- calcium mediated event peak z-score [3]: 7.6
